According to ChEMBL document CHEMBL1149377, “8-(1-Naphthalen-2-yl-vinyl)-6,7,10-trioxaspiro (4.5) decane, a new 1,2,4-trioxane effective against rodent and simian malaria” (2006):

What was measured:
[1] = test system: Plasmodium yoelii; assay: Antimalarial activity in Plasmodium yoelii MDR infected Swiss mice (Mus musculus) at 96 mg/kg Intramuscular dose; assay type: functional; conditions: im
[2] = test system: Plasmodium yoelii; assay: Antimalarial activity against Plasmodium yoelii infected Swiss mice (Mus musculus) at 48 mg/kg Intramuscular dose; assay type: functional; conditions: im
[3] = test system: Plasmodium yoelii; assay: Antimalarial activity against Plasmodium yoelii in Swiss mice (Mus musculus) model at 96 mg/kg peroral dose; assay type: functional; conditions: route oral
[4] = test system: Plasmodium yoelii; assay: Antimalarial activity against Plasmodium yoelii infected Swiss mice (Mus musculus) at 72 mg/kg Intramuscular dose; assay type: functional; conditions: im
[5] = test system: Plasmodium cynomolgi; assay: Elimination of parasitaemia in Plasmodium cynomolgi infected Rhesus monkeys (Macaca mulatta) at 20 mg/kg intramuscular or 40 mg/kg peroral dose; assay type: functional, organism-based
[6] = test system: Plasmodium yoelii; assay: Antimalarial activity against Plasmodium yoelii infected Swiss mice (Mus musculus) at 192 mg/kg peroral dose; assay type: functional; conditions: route oral
[7] = test system: Plasmodium yoelii; assay: Antimalarial activity against Plasmodium yoelii infected Swiss mice (Mus musculus) at 48 mg/kg peroral dose; assay type: functional; conditions: route oral
[8] = test system: Plasmodium yoelii; assay: Antimalarial activity against Plasmodium yoelii infected Swiss mice (Mus musculus) at 24 mg/kg intramuscular dose; assay type: functional; conditions: im

SMILES | inhibition in vivo at 96 mg/kg [1] [%] | inhibition in vivo at 96 mg/kg [3] [%] | other results
C=C(c1ccc2ccccc2c1)C1COC2(CCCCC2)OO1 (configuration not stated) | 97 |  | inhibition in vivo at 48 mg/kg [2]: 60%
C=C(c1ccccc1)C1COC2(CCCC2)OO1 (configuration not stated) | 100 | 15 | 
C=C(c1ccc2ccc3ccccc3c2c1)C1COC2(CCCCC2)OO1 (configuration not stated) | 13 | 99 | 
C=C(c1ccc2ccccc2c1)C1COC2(CCCC2)OO1 (configuration not stated) | 100 | 90 | inhibition in vivo at 72 mg/kg [4]: 96%; clearance [5]: 100%; inhibition in vivo at 192 mg/kg [6]: 100%; inhibition in vivo at 48 mg/kg [2]: 97%
C=C(c1ccc2ccc3ccccc3c2c1)C1COC2(CCCC2)OO1 (configuration not stated) | 99 | 64 | 
C=C(c1ccc2c(c1)Cc1ccccc1-2)C1COC2(CCCCC2)OO1 (configuration not stated) | 83 | 100 | 
C=C(c1cccc2ccccc12)C1COC2(CCCCC2)OO1 (configuration not stated) | 87 | 83 | 
CCN(CC)CCCC(C)Nc1ccnc2cc(Cl)ccc12 (configuration not stated) [CHLOROQUINE] |  | 100 | inhibition in vivo at 48 mg/kg [7]: 100%
C=C(c1cccc2ccccc12)C1COC2(CCCC2)OO1 (configuration not stated) | 91 | 78 | 
C=C(c1ccc2c(ccc3ccccc32)c1)C1COC2(CCCCC2)OO1 (configuration not stated) | 81 | 100 | 
C=C(c1ccc2c(ccc3ccccc32)c1)C1COC2(CCCC2)OO1 (configuration not stated) | 100 | 100 | 
C=C(c1ccc(F)cc1)C1COC2(CCCCC2)OO1 (configuration not stated) | 89 | 14 | 
C=C(c1ccc2c(c1)Cc1ccccc1-2)C1COC2(CCCC2)OO1 (configuration not stated) | 100 | 100 | 
C[C@@H]1CC[C@H]2[C@@H](C)C(=O)O[C@@H]3O[C@@]4(C)CC[C@@H]1[C@]32OO4 [ARTEMISININ] |  |  | inhibition in vivo at 24 mg/kg [8]: 100%; inhibition in vivo at 48 mg/kg [2]: 100%
